Results published in patent publication US10940139B2, “Compounds that interact with the Ras superfamily for the treatment of cancers, inflammatory diseases, rasopathies, and fibrotic disease” (Shy Therapeutics LLC, priority 2017, dated 2021).
Like-named read-outs stand apart in the source and are kept apart here.

Tests used:
Assay in all cases: Ras GTP binding domain inhibition assay (labeled GTP)
Settings in all cases: 20 μM compound
KRas G12D mutant protein = KRas G12D mutant protein (Homo sapiens (Human), UniProt P01116, G12D)
KRas wild type = KRas wild type (Homo sapiens (Human), UniProt P01116)
Procedure, shortened: (§1)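 His-tagged KRas protein (3-10 μg/ml) was captured overnight at 4° C on nickel-coated wells in 50 mM Tris pH 7.5, 1 mM MgCl2, 1 mM DTT. Bound labeled GTP was read by fluorescence after washing.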

[1] = target: KRas G12C/Q61H double mutant (Homo sapiens (Human), UniProt P01116, G12C/Q61H)
Procedure, shortened: as §1

[2] = target: KRas G12D/Q61H double mutant (Homo sapiens (Human), UniProt P01116, G12D/Q61H)
Procedure, shortened: as §1

KRas G12C mutant = KRas G12C mutant (Homo sapiens (Human), UniProt P01116, G12C)
Procedure, shortened: as §1

KRas Q61H mutant = KRas Q61H mutant (Homo sapiens (Human), UniProt P01116, Q61H)
Procedure, shortened: as §1

[3] = read-out: % Inhibition at 20 μM KRas G12D
[4] = read-out: % Inhibition at 20 μM KRas wild type
[5] = read-out: % Inhibition at 20 μM KRas G12C Q61H
[6] = read-out: % Inhibition at 20 μM KRas G12D Q61H
[7] = read-out: % Inhibition at 20 μM KRas G12C
[8] = read-out: % Inhibition at 20 μM KRas Q61H
[9] = KRas G12D, read-out: % Inhibition at 20 μM of K-Ras mutant and wild-type protein, KRas G12D
[10] = KRas wild type, read-out: % Inhibition at 20 μM of K-Ras mutant and wild-type protein, KRas wild type
[11] = KRas G12C/Q61H double mutant, read-out: % Inhibition at 20 μM of K-Ras mutant and wild-type protein, KRas G12C Q61H
[12] = KRas G12D/Q61H double mutant, read-out: % Inhibition at 20 μM of K-Ras mutant and wild-type protein, KRas G12D Q61H
[13] = KRas G12C, read-out: % Inhibition at 20 μM of K-Ras mutant and wild-type protein, KRas G12C
[14] = KRas Q61H, read-out: % Inhibition at 20 μM of K-Ras mutant and wild-type protein, KRas Q61H

KRas wild type, sequence (P01116-2 other isoform, or with tags, fused parts or gaps): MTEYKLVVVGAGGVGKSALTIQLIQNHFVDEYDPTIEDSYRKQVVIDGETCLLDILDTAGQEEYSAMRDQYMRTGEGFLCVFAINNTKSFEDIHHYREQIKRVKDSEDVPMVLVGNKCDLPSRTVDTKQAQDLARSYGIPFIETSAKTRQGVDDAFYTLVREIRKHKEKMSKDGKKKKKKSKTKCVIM
KRas G12D mutant protein, sequence (P01116-2 other isoform, or with tags, fused parts or gaps G12D): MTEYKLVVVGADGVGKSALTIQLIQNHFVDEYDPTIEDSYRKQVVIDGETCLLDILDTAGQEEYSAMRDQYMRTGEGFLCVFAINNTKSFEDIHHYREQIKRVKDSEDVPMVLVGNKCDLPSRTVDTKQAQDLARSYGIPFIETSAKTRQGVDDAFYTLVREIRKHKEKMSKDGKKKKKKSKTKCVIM
KRas Q61H mutant, sequence (P01116-2 other isoform, or with tags, fused parts or gaps Q61H): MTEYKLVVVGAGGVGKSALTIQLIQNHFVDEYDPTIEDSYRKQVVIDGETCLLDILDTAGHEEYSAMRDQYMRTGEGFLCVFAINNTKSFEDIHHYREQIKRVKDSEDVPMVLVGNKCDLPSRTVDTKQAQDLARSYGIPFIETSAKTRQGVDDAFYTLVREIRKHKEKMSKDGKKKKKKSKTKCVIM
KRas G12C mutant, sequence (P01116-2 other isoform, or with tags, fused parts or gaps G12C): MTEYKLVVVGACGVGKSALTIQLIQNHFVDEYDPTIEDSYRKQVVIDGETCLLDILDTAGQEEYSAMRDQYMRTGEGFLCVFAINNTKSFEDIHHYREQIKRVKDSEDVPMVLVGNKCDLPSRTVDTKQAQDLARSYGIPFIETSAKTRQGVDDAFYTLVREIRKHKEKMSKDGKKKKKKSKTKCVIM
KRas G12C/Q61H double mutant, sequence (P01116-2 other isoform, or with tags, fused parts or gaps G12C/Q61H): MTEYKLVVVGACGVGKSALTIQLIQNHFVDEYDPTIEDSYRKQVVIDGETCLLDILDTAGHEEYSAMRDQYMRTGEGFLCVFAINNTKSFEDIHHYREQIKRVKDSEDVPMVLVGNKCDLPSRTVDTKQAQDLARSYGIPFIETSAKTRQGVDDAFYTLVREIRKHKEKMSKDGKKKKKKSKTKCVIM
KRas G12D/Q61H double mutant, sequence (P01116-2 other isoform, or with tags, fused parts or gaps G12D/Q61H): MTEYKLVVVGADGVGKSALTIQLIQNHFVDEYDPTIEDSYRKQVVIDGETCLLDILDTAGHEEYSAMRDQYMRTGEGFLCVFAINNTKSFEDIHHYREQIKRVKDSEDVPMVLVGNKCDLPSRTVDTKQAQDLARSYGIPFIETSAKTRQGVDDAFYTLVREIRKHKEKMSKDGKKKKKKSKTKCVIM

SMILES | inhibition at 20 µM (KRas G12D mutant protein; [3]) | inhibition at 20 µM (KRas wild type; [4]) | inhibition at 20 µM [1, 5] | inhibition at 20 µM [2, 6] | inhibition at 20 µM (KRas G12C mutant; [7]) | inhibition at 20 µM (KRas Q61H mutant; [8]) | inhibition at 20 µM (KRas G12D mutant protein; [9]) | inhibition at 20 µM (KRas wild type; [10]) | inhibition at 20 µM [1, 11] | inhibition at 20 µM [2, 12] | inhibition at 20 µM (KRas G12C mutant; [13]) | inhibition at 20 µM (KRas Q61H mutant; [14])
Oc1nc(-c2ccccn2)nc2sc3c(c12)CCNC3 [drawing 2851] | 76 to 100% | 51 to 75% | 51 to 75% | 51 to 75% | 25 to 50% | 51 to 75% |  |  |  |  |  | 
COc1cnc(-c2cn(C)cn2)nc1O [drawing 3496] |  |  |  |  |  |  | 51 to 75% | 25 to 50% | 51 to 75% | 51 to 75% | 51 to 75% | 76 to 100%
O=C(COCc1ccnc(O)c1)Nc1nc(-c2ccccn2)nc2sccc12 [drawing 2857] | 25 to 50% | 25 to 50% | 51 to 75% | 51 to 75% | 25 to 50% | 51 to 75% |  |  |  |  |  | 
CCC(C)c1csc2c(OC)nc(-c3ccccn3)nc12 (stereo not drawn) [drawing 3471] |  |  |  |  |  |  | 25 to 50% | 25 to 50% | 51 to 75% | 51 to 75% | 25 to 50% | 51 to 75%
Oc1nc(-c2ccccn2)nc2c(C3CCCC3)csc12 [drawing 3495] |  |  |  |  |  |  | 51 to 75% | 25 to 50% | 51 to 75% | 51 to 75% | 25 to 50% | 51 to 75%
O=C(COCc1ccncc1)Nc1nc(-c2ccccn2)nc2sccc12 [drawing 2828] | 51 to 75% | 25 to 50% | 51 to 75% | 51 to 75% | 51 to 75% | 51 to 75% |  |  |  |  |  | 
Oc1nc(-c2ccccn2)nc2c(-c3ccc4c(c3)CCCO4)csc12 [drawing 2902] | 51 to 75% | 25 to 50% | 25 to 50% | 25 to 50% | 25 to 50% | 51 to 75% |  |  |  |  |  | 
COc1ccc(F)cc1-c1csc2c(O)nc(-c3ccccn3)nc12 [drawing 2874] | 51 to 75% | 25 to 50% | 25 to 50% | 51 to 75% | 25 to 50% | 25 to 50% |  |  |  |  |  | 
Oc1nc(-c2ccccn2)nc2c(C3CCC3)csc12 [drawing 3478] |  |  |  |  |  |  | 51 to 75% | 25 to 50% | 51 to 75% | 51 to 75% | 25 to 50% | 51 to 75%
COc1cnc(-c2cnc[nH]2)nc1O [drawing 3516] |  |  |  |  |  |  | 51 to 75% | 51 to 75% | 51 to 75% | 51 to 75% | 51 to 75% | 51 to 75%

Results, then the molecule that gave them:

inhibition at 20 µM (KRas G12D mutant protein; [3]) | inhibition at 20 µM (KRas wild type; [4]) | inhibition at 20 µM [1, 5] | inhibition at 20 µM [2, 6] | inhibition at 20 µM (KRas G12C mutant; [7]) | inhibition at 20 µM (KRas Q61H mutant; [8]) | inhibition at 20 µM (KRas G12D mutant protein; [9]) | inhibition at 20 µM (KRas wild type; [10]) | inhibition at 20 µM [1, 11] | inhibition at 20 µM [2, 12] | inhibition at 20 µM (KRas G12C mutant; [13]) | inhibition at 20 µM (KRas Q61H mutant; [14]) | SMILES
51 to 75% | 25 to 50% | 51 to 75% | 51 to 75% | 25 to 50% | 51 to 75% |  |  |  |  |  |  | Oc1nc(-c2ccccn2)nc2c(-c3ccc(F)cc3F)csc12 [drawing 2871]
 |  |  |  |  |  | 51 to 75% | 25 to 50% | 76 to 100% | 51 to 75% | 76 to 100% | 51 to 75% | COc1cnc(-c2ccccn2)nc1O [drawing 3469]
 |  |  |  |  |  | 51 to 75% | 51 to 75% | 51 to 75% | 51 to 75% | 25 to 50% | 76 to 100% | Nc1cccc(-c2csc3c(O)nc(-c4ccccn4)nc23)n1 [drawing 3514]
51 to 75% | 51 to 75% | 51 to 75% | 51 to 75% | 25 to 50% | 76 to 100% |  |  |  |  |  |  | Oc1nc(-c2ccccn2)nc2scc(Br)c12 [drawing 2703]
51 to 75% | 25 to 50% | 51 to 75% | 51 to 75% | 25 to 50% | 51 to 75% |  |  |  |  |  |  | Oc1nc(-c2ccccn2)nc2c(-c3ccccc3C(F)F)csc12 [drawing 2883]
51 to 75% | 51 to 75% | 51 to 75% | 51 to 75% | 25 to 50% | 51 to 75% |  |  |  |  |  |  | O=C(CCc1nn[nH]n1)Nc1nc(-c2ccccn2)nc2sccc12 [drawing 2890]
 |  |  |  |  |  | 51 to 75% | 25 to 50% | 51 to 75% | 51 to 75% | 25 to 50% | 76 to 100% | CC(C)Cc1csc2c(O)nc(-c3ccccn3)nc12 [drawing 3494]
